# “And” between values parts separate entries of the source, which are not always exact repeats. Equal values may be shown once.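 Where inhibition never reached the appropriate level, the endpoint shown equals the highest concentration tested. Otherwise, values were interpolated linearly from a five-concentration, 48-hour dose response in 96-well plates. TGI marks complete inhibition of growth.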
# Key:
# Assay in all cases: inhibition of tumour cell growth, NCI panel, 48 h
# SNB-19 CNS = test system: SNB-19 CNS
# RXF 393 renal = test system: RXF 393 renal
# MOLT-4 leukemia = test system: MOLT-4 leukemia
# KM20L2 colon = test system: KM20L2 colon
# NCI-H23 lung = test system: NCI-H23 lung
# DMS 273 small cell lung = test system: DMS 273 small cell lung
# NCI-H522 lung = test system: NCI-H522 lung
# SF-539 CNS = test system: SF-539 CNS
# RPMI-8226 leukemia = test system: RPMI-8226 leukemia
# HL-60(TB) leukemia = test system: HL-60(TB) leukemia
# HOP-18 NSCLC = test system: HOP-18 NSCLC
# SK-MEL-28 melanoma = test system: SK-MEL-28 melanoma
# SNB-75 CNS = test system: SNB-75 CNS
# NCI-H460 lung = test system: NCI-H460 lung
# CCRF-CEM leukemia = test system: CCRF-CEM leukemia
# HCC-2998 colon = test system: HCC-2998 colon
# HCT-116 colon = test system: HCT-116 colon
# 786-0 renal = test system: 786-0 renal
# SN12C renal = test system: SN12C renal
# XF 498 CNS = test system: XF 498 CNS
# NCI-H226 lung = test system: NCI-H226 lung
# DLD-1 colon = test system: DLD-1 colon
# M14 melanoma = test system: M14 melanoma
# HOP-62 NSCLC = test system: HOP-62 NSCLC
# LOX IMVI melanoma = test system: LOX IMVI melanoma
# SNB-78 CNS = test system: SNB-78 CNS
# K-562 leukemia = test system: K-562 leukemia
# U251 CNS = test system: U251 CNS
# LXFL 529 NSCLC = test system: LXFL 529 NSCLC
# M19-MEL melanoma = test system: M19-MEL melanoma
# SR leukemia = test system: SR leukemia
# DMS 114 small cell lung = test system: DMS 114 small cell lung
# SF-295 CNS = test system: SF-295 CNS
# OVCAR-5 ovarian = test system: OVCAR-5 ovarian
# SK-MEL-5 melanoma = test system: SK-MEL-5 melanoma
# TK-10 renal = test system: TK-10 renal
# COLO 205 colon = test system: COLO 205 colon
# ACHN renal = test system: ACHN renal
# HOP-92 NSCLC = test system: HOP-92 NSCLC
# OVCAR-3 ovarian = test system: OVCAR-3 ovarian
# HT29 colon = test system: HT29 colon
# RXF-631 renal = test system: RXF-631 renal
# SK-MEL-2 melanoma = test system: SK-MEL-2 melanoma
# SW-620 colon = test system: SW-620 colon
# OVCAR-4 ovarian = test system: OVCAR-4 ovarian
# MALME-3M melanoma = test system: MALME-3M melanoma
# CAKI-1 renal = test system: CAKI-1 renal
Structure (SMILES),TGI (RXF 393 renal),TGI (MOLT-4 leukemia),TGI (KM20L2 colon),TGI (NCI-H23 lung),TGI (DMS 273 small cell lung),TGI (NCI-H522 lung),TGI (RPMI-8226 leukemia),TGI (HL-60(TB) leukemia),TGI (HOP-18 NSCLC),TGI (SK-MEL-28 melanoma),TGI (SNB-75 CNS),TGI (CCRF-CEM leukemia),TGI (HCC-2998 colon),TGI (HCT-116 colon),TGI (SN12C renal),TGI (XF 498 CNS),TGI (NCI-H226 lung),TGI (M14 melanoma),TGI (SNB-78 CNS),TGI (LXFL 529 NSCLC),other results
O=c1oc(-c2ccccc2)cn1-c1ccccc1,> 100000 nM,> 100000 nM,> 100000 nM,> 100000 nM,> 100000 nM,> 100000 nM,> 100000 nM,> 100000 nM,> 100000 nM,> 100000 nM,> 100000 nM,> 100000 nM,> 100000 nM,> 100000 nM,> 100000 nM,> 100000 nM,> 100000 nM,> 100000 nM,> 100000 nM,> 100000 nM,TGI (SNB-19 CNS): > 100000 nM; TGI (SF-539 CNS): > 100000 nM; TGI (NCI-H460 lung): > 100000 nM; TGI (786-0 renal): > 100000 nM; TGI (DLD-1 colon): > 100000 nM; TGI (HOP-62 NSCLC): > 100000 nM; TGI (LOX IMVI melanoma): > 100000 nM; TGI (K-562 leukemia): > 100000 nM; TGI (U251 CNS): > 100000 nM
CCC(=O)OC[n+]1ccc2c(C)c3[nH]c4ccccc4c3c(C)c2c1,–,725 nM,2300 nM,–,–,–,2200 nM,6180 nM,701 nM,–,2550 nM,2680 nM,–,–,–,–,–,–,–,1780 nM,TGI (M19-MEL melanoma): 2000 nM; TGI (SR leukemia): 553 nM; TGI (DMS 114 small cell lung): 1950 nM; TGI (SF-295 CNS): 1880 nM; TGI (OVCAR-5 ovarian): 1910 nM; TGI (SK-MEL-5 melanoma): 2510 nM; TGI (TK-10 renal): 3180 nM; TGI (COLO 205 colon): 1550 nM; TGI (ACHN renal): 1760 nM; TGI (HOP-92 NSCLC): 2340 nM; TGI (OVCAR-3 ovarian): 2680 nM; TGI (HT29 colon): 2360 nM; TGI (RXF-631 renal): 1910 nM
COc1ccc(C2=C[C@]3(O)CCCN3C[C@@H]2c2ccc(OC)c(OC)c2)cc1,22.3 nM,–,–,0.105 nM,0.172 nM,< 0.1 nM,13900 nM,< 0.1 nM,0.214 nM,2.16 nM and 19.7 nM,–,–,101 nM,1.12 nM,> 100000 nM,449 nM,< 0.1 nM,< 0.1 nM,33.8 nM,–,TGI (SK-MEL-2 melanoma): 0.164 nM; TGI (M19-MEL melanoma): 0.396 nM; TGI (SR leukemia): < 0.1 nM; TGI (SW-620 colon): 1.83 nM; TGI (SK-MEL-5 melanoma): < 0.1 nM; TGI (OVCAR-4 ovarian): 38.4 nM; TGI (TK-10 renal): 611 nM; TGI (COLO 205 colon): < 0.1 nM; TGI (ACHN renal): 1.85 nM; TGI (HOP-92 NSCLC): 0.527 nM; TGI (MALME-3M melanoma): < 0.1 nM; TGI (CAKI-1 renal): 1.62 nM
